Here are results for two substances from US20210321649A1, “METHOD FOR DETECTING MISHANDLING AND MISUSE OF FOOD PRODUCTS” (SECURITY MATTERS LTD., priority 2016, published 2021).

The data set can be described thus: Solubility of marking compounds in ethanol and water (Table 1). As to conditions: for Solubility in Ethanol: solvent ethanol; for Solubility in water: solvent water.

On to “Copper complexes chlorophylls [Copper complexes chlorophylls (E141)]”, for which the “Solubility in Ethanol” value is “Soluble” and the Solubility in water entry is “Insoluble”.

With Vitamin B12, the “Solubility in Ethanol” value is reported as “Soluble” and the Solubility in water entry is reported as “Soluble”.
